One data set has as its system Hepatocyte. In words: Drug metabolism in rat hepatocytes assessed as glucuronidation. The data set is classed as ADME, cell-based.
The target of data set [1] is MAP/microtubule affinity-regulating kinase 3 (Homo sapiens) (UniProt P27448). Description: Inhibition of MARK3 (unknown origin) at 100 nM.
In data set [2] the target is MAP/microtubule affinity-regulating kinase 4 (Homo sapiens) (UniProt Q96L34). Description: Inhibition of MARK4 (unknown origin) at 100 nM.
Data set [3] deals with Dual specificity mitogen-activated protein kinase kinase 3 (Homo sapiens) (UniProt P46734). In words: Inhibition of MEK3 (unknown origin) at 100 nM.
Data set [4] deals with MAP kinase-interacting serine/threonine-protein kinase 1 (Homo sapiens) (UniProt Q9BUB5). In words: Inhibition of MKNK1 (unknown origin) at 100 nM.
Chain of MAP kinase-interacting serine/threonine-protein kinase 1 (Homo sapiens) (Q9BUB5 whole entry, looked up): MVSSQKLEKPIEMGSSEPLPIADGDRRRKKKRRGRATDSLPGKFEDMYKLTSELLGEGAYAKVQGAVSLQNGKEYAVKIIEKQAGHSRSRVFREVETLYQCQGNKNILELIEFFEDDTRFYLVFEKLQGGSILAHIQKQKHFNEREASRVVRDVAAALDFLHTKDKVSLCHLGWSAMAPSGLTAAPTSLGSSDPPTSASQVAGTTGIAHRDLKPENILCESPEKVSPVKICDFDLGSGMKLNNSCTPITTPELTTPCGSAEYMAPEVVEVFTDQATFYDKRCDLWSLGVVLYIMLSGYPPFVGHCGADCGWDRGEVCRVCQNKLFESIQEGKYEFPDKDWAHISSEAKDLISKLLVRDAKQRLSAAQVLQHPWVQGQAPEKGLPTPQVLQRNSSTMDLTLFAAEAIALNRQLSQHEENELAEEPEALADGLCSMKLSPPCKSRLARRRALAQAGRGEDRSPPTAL
The target in data set [5] is Mitogen-activated protein kinase kinase kinase 9 (Homo sapiens) (UniProt P80192). In words: Inhibition of MLK1 (unknown origin) at 100 nM.
Data set [6] concerns the target Mitogen-activated protein kinase kinase kinase 10 (Homo sapiens) (UniProt Q02779). Description: Inhibition of MLK2 (unknown origin) at 100 nM.
Data set [7] concerns the target Mitogen-activated protein kinase kinase kinase 11 (Homo sapiens) (UniProt Q16584). In words: Inhibition of MLK3 (unknown origin) at 100 nM.
The target of data set [8] is Myosin light chain kinase, smooth muscle (Homo sapiens) (UniProt Q15746). Description: Inhibition of MYLK (unknown origin) at 100 nM.
The target of data set [9] is Myosin light chain kinase (Homo sapiens) (UniProt Q32MK0). In words: Inhibition of MYLK3 (unknown origin) at 100 nM.
The target in data set [10] is Serine/threonine-protein kinase Nek4 (Homo sapiens) (UniProt P51957). Description: Inhibition of NEK4 (unknown origin) at 100 nM.
Data set [11] addresses Serine/threonine-protein kinase PAK 3 (Homo sapiens) (UniProt O75914). Description: Inhibition of PAK3 (unknown origin) at 100 nM.
Data set [12] has as its target PAS domain-containing serine/threonine-protein kinase (Homo sapiens) (UniProt Q96RG2). In words: Inhibition of PASK (unknown origin) at 100 nM.
For data set [13], the system named is Platelet-derived growth factor receptor alpha (Homo sapiens), P16234 [V561D]. Description: Inhibition of PDGFRalpha V561D mutant (unknown origin) at 100 nM.
Chain of Platelet-derived growth factor receptor alpha (Homo sapiens), P16234 [V561D] (P16234 whole entry V561D, canonical isoform): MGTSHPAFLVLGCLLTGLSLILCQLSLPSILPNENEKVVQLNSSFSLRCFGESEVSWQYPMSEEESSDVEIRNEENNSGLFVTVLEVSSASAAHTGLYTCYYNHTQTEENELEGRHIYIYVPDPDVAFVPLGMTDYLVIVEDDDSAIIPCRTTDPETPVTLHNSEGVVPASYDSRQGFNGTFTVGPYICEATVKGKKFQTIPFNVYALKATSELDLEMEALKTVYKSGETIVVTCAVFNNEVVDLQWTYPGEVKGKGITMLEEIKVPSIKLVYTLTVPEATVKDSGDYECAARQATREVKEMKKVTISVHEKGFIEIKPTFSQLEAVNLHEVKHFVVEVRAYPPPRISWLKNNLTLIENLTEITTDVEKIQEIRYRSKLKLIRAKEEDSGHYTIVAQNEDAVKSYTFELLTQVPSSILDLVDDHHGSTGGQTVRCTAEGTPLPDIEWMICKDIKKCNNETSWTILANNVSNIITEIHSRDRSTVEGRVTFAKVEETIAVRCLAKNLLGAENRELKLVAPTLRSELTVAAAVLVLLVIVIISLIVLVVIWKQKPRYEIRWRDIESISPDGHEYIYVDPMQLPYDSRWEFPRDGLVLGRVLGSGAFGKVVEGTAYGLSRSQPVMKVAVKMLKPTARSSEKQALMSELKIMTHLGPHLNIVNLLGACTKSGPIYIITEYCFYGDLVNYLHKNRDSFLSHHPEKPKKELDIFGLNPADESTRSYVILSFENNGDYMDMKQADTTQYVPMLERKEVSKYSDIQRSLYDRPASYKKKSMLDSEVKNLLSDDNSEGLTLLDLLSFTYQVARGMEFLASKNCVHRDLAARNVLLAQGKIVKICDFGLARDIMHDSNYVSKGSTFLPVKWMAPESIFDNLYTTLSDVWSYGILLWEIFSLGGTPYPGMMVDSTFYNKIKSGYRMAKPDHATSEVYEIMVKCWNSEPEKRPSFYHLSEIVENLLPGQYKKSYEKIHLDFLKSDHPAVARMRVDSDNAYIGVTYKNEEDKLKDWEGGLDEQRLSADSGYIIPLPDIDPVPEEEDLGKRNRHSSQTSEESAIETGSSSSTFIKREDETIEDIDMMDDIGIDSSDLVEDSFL
Data set [14] has as its target Phosphatidylinositol 4,5-bisphosphate 3-kinase catalytic subunit delta isoform (Homo sapiens) (UniProt O00329). Description: Inhibition of PI3KD (unknown origin) at 100 nM.
Data set [15] deals with Phosphorylase b kinase gamma catalytic chain, skeletal muscle/heart isoform (Homo sapiens) (UniProt Q16816). Description: Inhibition of PHKgamma1 (unknown origin) at 100 nM.
Data set [16] concerns the target Macrophage-stimulating protein receptor (Homo sapiens) (UniProt Q04912). In words: Inhibition of RON (unknown origin) at 100 nM.
Data set [17] concerns the target Serine/threonine-protein kinase Sgk1 (Homo sapiens) (UniProt O00141). Description: Inhibition of SGK1 (unknown origin) at 100 nM.
The species entered for another data set is Homo sapiens. Description: Inhibition of SRM (unknown origin) at 100 nM.
Data set [18] has as its target Serine/threonine-protein kinase TAO1 (Homo sapiens) (UniProt Q7L7X3). In words: Inhibition of TAO1 (unknown origin) at 100 nM.
Data set [19] has as its target Testis-specific serine/threonine-protein kinase 2 (Homo sapiens) (UniProt Q96PF2). Description: Inhibition of TSSK2 (unknown origin) at 100 nM.
For data set [20], the target named is Dual specificity protein kinase TTK (Homo sapiens) (UniProt P33981). In words: Inhibition of TTK (unknown origin) at 100 nM.
Data set [21] has as its target Serine/threonine-protein kinase WNK2 (Homo sapiens) (UniProt Q9Y3S1). Description: Inhibition of WNK2 (unknown origin) at 100 nM.
Data set [22] has as its target Activin receptor type-2B (Homo sapiens) (UniProt Q13705). Description: Inhibition of ACVR2B (unknown origin) at 100 nM.
In data set [23] the target is RAC-beta serine/threonine-protein kinase (Homo sapiens) (UniProt P31751). In words: Inhibition of AKT2 (unknown origin) at 100 nM.
For data set [24], the target named is RAC-gamma serine/threonine-protein kinase (Homo sapiens) (UniProt Q9Y243). Description: Inhibition of AKT3 (unknown origin) at 100 nM.
Data set [25] concerns the target Aurora kinase C (Homo sapiens) (UniProt Q9UQB9). Description: Inhibition of Aurora C (unknown origin) at 100 nM.
For data set [26], the target named is Tyrosine-protein kinase receptor UFO (Homo sapiens) (UniProt P30530). In words: Inhibition of AXL (unknown origin) at 100 nM.
Data set [27] concerns the target Serine/threonine-protein kinase B-raf (Homo sapiens) (UniProt P15056). Description: Inhibition of B-Raf (unknown origin) at 100 nM.
Data set [28] concerns the target Cyclin-dependent kinase 5/CDK5 activator 1 (Homo sapiens) (UniProt Q00535+Q15078). In words: Inhibition of CDK5/p35 (unknown origin) at 100 nM. The data set is classed as protein-complex assay.
The target in data set [29] is Casein kinase I isoform gamma-3 (Homo sapiens) (UniProt Q9Y6M4). In words: Inhibition of CK1gamma3 (unknown origin) at 100 nM.
Data set [30] deals with Tyrosine-protein kinase CSK (Homo sapiens) (UniProt P41240). Description: Inhibition of CSK (unknown origin) at 100 nM.
Data set [31] concerns the target Calcium/calmodulin-dependent protein kinase type 1 (Homo sapiens) (UniProt Q14012). Description: Inhibition of CaMKI (unknown origin) at 100 nM.
Data set [32] deals with Death-associated protein kinase 1 (Homo sapiens) (UniProt P53355). In words: Inhibition of DAPK1 (unknown origin) at 100 nM.
Data set [33] concerns the target Serine/threonine-protein kinase DCLK2 (Homo sapiens) (UniProt Q8N568). In words: Inhibition of DCAMKL2 (unknown origin) at 100 nM.
In data set [34] the target is DNA-dependent protein kinase catalytic subunit (Homo sapiens) (UniProt P78527). Description: Inhibition of DNA-PK (unknown origin) at 100 nM.
The target in data set [35] is Serine/threonine-protein kinase 17A (Homo sapiens) (UniProt Q9UEE5). Description: Inhibition of DRAK1 (unknown origin) at 100 nM.
The target in data set [36] is Dual specificity tyrosine-phosphorylation-regulated kinase 3 (Homo sapiens) (UniProt O43781). In words: Inhibition of DYRK3 (unknown origin) at 100 nM.
For data set [37], the target named is Ephrin type-A receptor 4 (Homo sapiens) (UniProt P54764). Description: Inhibition of EPHA4 (unknown origin) at 100 nM.
Data set [38] addresses Ephrin type-A receptor 7 (Homo sapiens) (UniProt Q15375). In words: Inhibition of EPHA7 (unknown origin) at 100 nM.
Data set [39] concerns the target Ephrin type-A receptor 8 (Homo sapiens) (UniProt P29322). In words: Inhibition of EPHA8 (unknown origin) at 100 nM.
The target in data set [40] is Tyrosine-protein kinase FRK (Homo sapiens) (UniProt P42685). In words: Inhibition of FRK (unknown origin) at 100 nM.
Chain of Tyrosine-protein kinase FRK (Homo sapiens) (P42685 whole entry): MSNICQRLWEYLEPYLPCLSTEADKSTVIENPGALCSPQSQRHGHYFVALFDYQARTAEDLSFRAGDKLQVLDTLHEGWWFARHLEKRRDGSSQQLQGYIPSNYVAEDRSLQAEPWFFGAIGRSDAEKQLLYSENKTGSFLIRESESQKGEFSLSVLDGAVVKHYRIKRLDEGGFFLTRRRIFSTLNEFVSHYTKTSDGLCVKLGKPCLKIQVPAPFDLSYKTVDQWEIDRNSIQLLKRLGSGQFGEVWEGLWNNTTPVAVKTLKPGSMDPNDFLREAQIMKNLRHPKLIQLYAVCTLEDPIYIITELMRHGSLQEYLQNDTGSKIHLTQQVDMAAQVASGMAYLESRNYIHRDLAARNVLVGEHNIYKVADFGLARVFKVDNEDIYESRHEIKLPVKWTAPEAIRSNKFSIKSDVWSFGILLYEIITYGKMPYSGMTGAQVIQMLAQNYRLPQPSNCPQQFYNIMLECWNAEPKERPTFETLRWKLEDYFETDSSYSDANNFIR
The target in data set [41] is Homeodomain-interacting protein kinase 2 (Homo sapiens) (UniProt Q9H2X6). In words: Inhibition of HIPK2 (unknown origin) at 100 nM.
Chain of Homeodomain-interacting protein kinase 2 (Homo sapiens) (Q9H2X6 whole entry, looked up): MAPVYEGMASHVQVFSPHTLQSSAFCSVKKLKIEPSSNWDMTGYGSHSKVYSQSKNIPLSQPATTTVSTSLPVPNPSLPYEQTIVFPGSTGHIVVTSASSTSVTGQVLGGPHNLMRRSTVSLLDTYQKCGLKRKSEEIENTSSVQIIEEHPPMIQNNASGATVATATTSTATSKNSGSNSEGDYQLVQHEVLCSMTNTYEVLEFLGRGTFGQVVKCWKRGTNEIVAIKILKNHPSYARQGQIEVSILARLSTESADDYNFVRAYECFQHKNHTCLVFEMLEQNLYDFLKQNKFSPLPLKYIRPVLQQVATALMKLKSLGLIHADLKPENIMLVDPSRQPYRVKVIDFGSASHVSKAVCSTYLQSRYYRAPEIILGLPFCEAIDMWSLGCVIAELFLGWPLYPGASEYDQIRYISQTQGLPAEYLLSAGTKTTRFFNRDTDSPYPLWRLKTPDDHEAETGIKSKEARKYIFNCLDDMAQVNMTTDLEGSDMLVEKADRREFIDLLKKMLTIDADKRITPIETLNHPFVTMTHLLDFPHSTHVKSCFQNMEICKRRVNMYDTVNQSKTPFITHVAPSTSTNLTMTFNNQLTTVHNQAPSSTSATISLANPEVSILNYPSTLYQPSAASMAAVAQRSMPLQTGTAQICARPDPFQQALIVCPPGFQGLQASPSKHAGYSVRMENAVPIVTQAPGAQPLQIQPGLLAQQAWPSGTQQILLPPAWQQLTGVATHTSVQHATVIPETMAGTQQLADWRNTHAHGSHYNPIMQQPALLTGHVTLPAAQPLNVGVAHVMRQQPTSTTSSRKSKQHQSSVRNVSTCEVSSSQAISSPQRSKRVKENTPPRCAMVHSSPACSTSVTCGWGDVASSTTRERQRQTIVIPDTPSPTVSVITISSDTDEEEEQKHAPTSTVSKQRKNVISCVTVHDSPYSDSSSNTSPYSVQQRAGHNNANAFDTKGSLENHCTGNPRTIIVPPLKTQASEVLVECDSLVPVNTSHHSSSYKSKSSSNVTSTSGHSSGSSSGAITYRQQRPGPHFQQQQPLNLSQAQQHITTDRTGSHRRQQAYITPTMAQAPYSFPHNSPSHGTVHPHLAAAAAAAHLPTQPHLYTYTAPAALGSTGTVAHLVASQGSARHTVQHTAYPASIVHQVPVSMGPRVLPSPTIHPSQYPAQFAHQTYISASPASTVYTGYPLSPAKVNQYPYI

Chain of Serine/threonine-protein kinase Sgk1 (Homo sapiens) (O00141 whole entry): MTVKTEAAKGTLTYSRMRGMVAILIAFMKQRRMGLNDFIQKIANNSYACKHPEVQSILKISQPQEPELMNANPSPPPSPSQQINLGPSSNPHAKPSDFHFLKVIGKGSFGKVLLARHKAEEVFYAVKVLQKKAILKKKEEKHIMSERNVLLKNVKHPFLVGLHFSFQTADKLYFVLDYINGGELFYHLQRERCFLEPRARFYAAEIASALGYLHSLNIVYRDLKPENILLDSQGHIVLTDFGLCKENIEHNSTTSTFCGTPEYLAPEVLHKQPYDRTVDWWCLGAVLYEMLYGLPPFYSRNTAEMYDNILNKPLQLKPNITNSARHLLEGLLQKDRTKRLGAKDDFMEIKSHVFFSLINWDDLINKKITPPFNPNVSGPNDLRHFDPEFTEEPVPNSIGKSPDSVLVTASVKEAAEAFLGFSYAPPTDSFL
Chain of Calcium/calmodulin-dependent protein kinase type 1 (Homo sapiens) (Q14012 whole entry, looked up): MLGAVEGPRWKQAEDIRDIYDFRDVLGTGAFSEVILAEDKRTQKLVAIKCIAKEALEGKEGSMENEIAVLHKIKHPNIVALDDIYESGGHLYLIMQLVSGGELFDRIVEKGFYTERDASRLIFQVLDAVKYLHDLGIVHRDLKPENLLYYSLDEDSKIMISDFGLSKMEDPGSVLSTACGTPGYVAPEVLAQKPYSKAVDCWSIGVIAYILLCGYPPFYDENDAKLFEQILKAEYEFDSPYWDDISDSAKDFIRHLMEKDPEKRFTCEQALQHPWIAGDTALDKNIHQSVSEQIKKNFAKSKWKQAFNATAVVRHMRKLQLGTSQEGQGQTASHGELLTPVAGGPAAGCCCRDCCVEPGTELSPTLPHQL
Chain of Serine/threonine-protein kinase B-raf (Homo sapiens) (P15056 whole entry): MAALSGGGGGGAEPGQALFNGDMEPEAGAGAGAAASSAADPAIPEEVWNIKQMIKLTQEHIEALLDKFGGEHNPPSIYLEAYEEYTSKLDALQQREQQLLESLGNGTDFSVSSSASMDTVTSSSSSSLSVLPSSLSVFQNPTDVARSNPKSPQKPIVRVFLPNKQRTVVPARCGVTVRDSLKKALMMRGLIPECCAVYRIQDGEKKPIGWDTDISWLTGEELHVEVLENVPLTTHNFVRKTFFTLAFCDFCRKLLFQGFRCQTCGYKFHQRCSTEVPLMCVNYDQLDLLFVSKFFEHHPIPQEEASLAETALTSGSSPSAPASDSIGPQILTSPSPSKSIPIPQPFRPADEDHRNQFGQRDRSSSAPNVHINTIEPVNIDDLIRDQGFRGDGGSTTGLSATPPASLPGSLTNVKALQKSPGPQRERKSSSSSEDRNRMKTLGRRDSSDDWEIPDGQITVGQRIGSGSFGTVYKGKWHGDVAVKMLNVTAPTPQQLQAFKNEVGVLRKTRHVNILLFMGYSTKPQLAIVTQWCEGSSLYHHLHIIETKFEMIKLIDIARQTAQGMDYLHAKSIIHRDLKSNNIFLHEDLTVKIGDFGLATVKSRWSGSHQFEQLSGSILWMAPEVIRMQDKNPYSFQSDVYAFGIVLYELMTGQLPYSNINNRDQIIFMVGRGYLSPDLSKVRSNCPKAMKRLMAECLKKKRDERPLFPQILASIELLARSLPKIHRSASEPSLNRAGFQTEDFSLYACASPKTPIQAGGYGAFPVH

In the case of `CC1(C)OCc2c(Nc3n[nH]c4c(Cl)cccc34)nc(-c3cn[nH]c3)nc21`, the Drug metabolism result in the data set on Hepatocyte is listed as “metabolite_detected”.

Turning to `CC1(C)OCc2c(Nc3n[nH]c4ccccc34)nc(-c3cn[nH]c3)nc21`, the inhibition (commonly the change of the read-out against control, counted positive when it falls) in data set [1] was found to be 8.4%; in data set [2], 2.5%; in data set [3] it was 14.1%; in [4], 2.3%; in [5], 2.9%; in data set [6], 2.3%. The inhibition was found to be 6.7% in data set [7]; 2.8% in data set [8]; 20.6% in data set [9]; 2% in data set [10]; 8.9% in data set [11]; 1.2% in [12]. For the same molecule, the inhibition was 89.2% in [13]; -7.6% in data set [14]; 8.5% in data set [15]; 3.8% in data set [16]; -5.2% in [17]; 17.3% in the data set listed under Homo sapiens. The inhibition was 0.7% in [18]; 4% in [19]; 4.3% in data set [20]; 3.4% in [21]; 96.8% in [22]; 8.8% in data set [23]. In addition, the inhibition was 10.4% in [24]; 1.2% in data set [25]; -2.2% in [26]; 59.3% in data set [27]; 3.1% in data set [28]; 1.8% in data set [29]. Also, the inhibition in data set [30] amounted to 3.7%; in data set [31] it was 4.5%; in data set [32], 2.2%; in data set [33] it was 1.8%; in [34], 7.5%; in [35], 1.1%. Also, the inhibition in [36] is -3.5%; in data set [37], 23.1%; in [38], 35.9%; in [39], 24.9%; in [40], 85.6%; in data set [41], 1.3%.

Values taken from ChEMBL document CHEMBL3758169, “4-Aminoindazolyl-dihydrofuro[3,4-d]pyrimidines as non-covalent inhibitors of mutant epidermal growth factor receptor tyrosine kinase” (Bioorg Med Chem Lett, 2016).
